# Source: US10421973B2, “Chemically inducible cucumber mosaic virus protein expression system” (THE REGENTS OF THE UNIVERSITY OF CALIFORNIA, priority 2006, dated 2019)
# “And” between values parts separate entries of the source, which are not always exact repeats. Identical values can stand only once. Where a SMILES comes first, the peptide text is derived from it. Bridges are numbered along the chain shown (N, C = ends). [ ]: non-standard residue; d: D form. The star is where a group is joined. Ileψ(thiazoline)Cys = CC[C@H](C)[C@H](N)C1=N[C@H](C(=O)*)CS1; dOrn = NCCC[C@@H](N)C(=O)O
# How the values were obtained:
# [1] = tested on: XVE inducible cell cultures; experiment: Effect of inducer concentration on rAAT production, XVE inducible cell cultures; format: cell-based, Nicotiana benthamiana
# Description: (§1) The inducer, 17-beta-estradiol, dissolved in DMSO, was added to cultures of XVE and CMViva transgenic cell lines at a specific time after inoculation to start induction. The final concentration of DMSO was not higher than 0.3%.
# (§2) For inducible systems, the correct inducer concentration and timing of application are critical to maximize recombinant protein expression. Two inducible expression systems were evaluated for rAAT protein production. The concentration of inducer (COI) required for inducing maximum rAAT production and the close-response of inducible plant cell cultures were determined. Inducer was added to the XVE and CMViva cell suspensions 10 days after inoculation (100 mL cell culture in a 250 mL Erlenmeyer flask, 140 rpm and 25° C. under ambient light) to a final concentration of 0, 0.1, 0.5, 1, 2.5, 5, 10, 25, 50 or 100 μM. Samples were harvested 8 days after induction and total and functional extracellular rAAT were determined by ELISA (FIG. 8). In the absence of inducer, rAAT was not detected in XVE or CMViva cultures. There was a dose-dependent response in rAAT expression in XVE and CMViva cell cultures with added inducer, and both inducible systems allowed regulation of rAAT expression at inducer concentrations between 0.1 and 10 μM. Above approximately 10 μM estradiol, rAAT production leveled off in both XVE and CMViva systems. […]
# N. benthamiana cultures = experiment: Effects of estradiol on N. benthamiana cultures (toxicity, growth); format: cell-based, Nicotiana benthamiana; details: at up to 100 μM
# Description: as §2, with “systems. The CMViva system first responded at 0.1 μM while XVE required 2.5 μM.” for “systems.”
# XVE system = details: cited from earlier work
# [2] = tested on: viral amplicon plant cell cultures; details: cited from earlier work
# [3] = tested on: CMViva inducible cell cultures; experiment: Effect of inducer concentration on rAAT production, CMViva inducible cell cultures; format: cell-based, Nicotiana benthamiana
# Description: as §1
# For inducible systems, the correct inducer concentration and timing of application are critical to maximize recombinant protein expression. Two inducible expression systems were evaluated for rAAT protein production. The concentration of inducer (COI) required for inducing maximum rAAT production and the close-response of inducible plant cell cultures were determined. Inducer was added to the XVE and CMViva cell suspensions 10 days after inoculation (100 mL cell culture in a 250 mL Erlenmeyer flask, 140 rpm and 25° C. under ambient light) to a final concentration of 0, 0.1, 0.5, 1, 2.5, 5, 10, 25, 50 or 100 μM. Samples were harvested 8 days after induction and total and functional extracellular rAAT were determined by ELISA (FIG. 8). In the absence of inducer, rAAT was not detected in XVE or CMViva cultures. There was a dose-dependent response in rAAT expression in XVE and CMViva cell cultures with added inducer, and both inducible systems allowed regulation of rAAT expression at inducer concentrations between 0.1 and 10 μM. Above approximately 10 μM estradiol, rAAT production leveled off in both XVE and CMViva systems. The CMViva system first responded at 0.1 μM while XVE required 2.5 μM. Higher extracellular rAAT productivity was produced in CMViva at a relatively low inducer concentration (0.5 μM) compared with that in XVE system (5 μM) and CMViva produced more functional rAAT at all inducer concentrations.
# N. benthamiana leaves = experiment: Induction method study, total rAAT ELISA in intact or detached N. benthamiana leaves (CMViva + p19); format: in vivo, Nicotiana benthamiana
# Description: (§3) Non-transgenic/wildtype N. benthamiana seedlings were grown from seed in soil-filled 10-cm pots. Seedlings were transplanted to individual 10-cm pots until plants were 10 to 15 cm in height, at which time plants were ready for infiltration. All plants were grown in a greenhouse with a 16-hour photoperiod and a temperature range of 18° C. (nighttime low) to 30° C. (daytime high). To prepare for evaluation of protein expression in detached leaves, plant leaves were cut at the petiole and stored dry in unsealed plastic bags for one hour before infiltration to simulate a situation where plants would be harvested from a field and transported to a facility for infiltration.
# (§4) A. tumefaciens cells containing the appropriate plasmids were grown for 24 hours in 2 mL of Luria-Bertani (LB) broth containing appropriate selection antibiotics. Approximately 0.5 mL was then transferred to 25 mL of LB broth supplemented with 10 μL of 100 mM acetosyringone (3′, 5′-dimethoxy-4′-hydroxyacetophenone) (Aldrich Chemicals, Milwaukee, Wis.) and 0.5 ml of 1 M 2-(4-morpholino) ethanesulfonic acid (MES) buffer (pH 5.6), and grown overnight at 28° C. with shaking until the cell density (optical density, OD600) reached 1.0 absorbance units. Cells were harvested by centrifugation at 2600 g, resuspended in 10 mL of sterile de-ionized water, and the cell density was adjusted to 1.0 absorbance units. Five milliliters of the A. tumefaciens cell suspension for CMViva was mixed with 5 mL of A. tumefaciens cells containing the p35S:p19 plasmid, and then supplemented with magnesium chloride to reach a final concentration of 10 mM and acetosyringone to 150 µM, and incubated at room temperature for five hours. Bacterial suspensions were then pressure infiltrated onto the abaxial side of either intact or detached N. benthamiana leaves using a 3-mL sterile syringe without a needle at three to four points to sufficiently cover the entire leaf (approximately 1 mL of bacterial suspension per 0.5 g fresh weight of tissue). No A. tumefaciens solution was applied to plants selected as healthy control plants.
# (§5) Intact plants that had been infiltrated were grown in the greenhouse for the duration of the experiment. Leaves that had been detached were stored in a humidity chamber following infiltration to maintain the health of the plant material. The humidity chamber was prepared by soaking 400 g of Perlite soil additive (E.B. Stone) in 1.5 L of de-ionized water. Excess water was decanted and the saturated Perlite was packed to form a 3-cm thick bed on the bottom of an 11.4 L rectangular Tupperware container. Plant leaves were then placed 7 cm above the Perlite bed on top of racks, and the chamber was then sealed and placed in the dark at 21° C. The humidity chamber was prepared five hours before infiltration to ensure a humid environment upon introduction of the plant leaves.
# (§6) Twelve hours after infiltration, an induction solution composed of 50 μM 17-β-estradiol (Sigma Inc., St. Louis, Mo.) in 0.05% Tween 20 was applied to all infiltrated N. benthamiana leaves using either cotton tipped applicators to both sides of the leaves or a 3-mL sterile syringe without a needle pressure injected onto the abaxial side of the leaves. To evaluate the effect of multiple inducer applications, the induction solution was applied to half of the total number of infiltrated leaves in the same manner (directly after sampling) at 2-day (48±1 h) increments after the initial induction. No inducer solution was applied at any time to the healthy control plants.
# (§7) Plant leaves were sampled on the infiltrated/induced areas 2 days (48±1 h) post-induction (60±1 h post-infiltration) by collecting two 7-mm diameter discs at various locations on each leaf and combining the discs to approximate an average leaf sample. Three leaves from different plants were sampled for analysis of intact plant leaves and four leaves were used for analysis of detached plant leaves. […]
# [4] = tested on: porcine pancreatic elastase (PPE); experiment: Induction method study, functional rAAT ELISA in intact or detached N. benthamiana leaves (CMViva + p19); format: biochemical
# Description: as §3, §4, §5, §6, §7
# [5] = tested on: proteases in the cell cultured medium; experiment: Effect of protease inhibitors and additives on human AAT degradation in cell-free CMViva conditioned medium; format: biochemical, Nicotiana benthamiana; details: cell-free conditioned medium; data not shown
# Description: For the investigation of human AAT stability in plant cell cultures, human AAT was added to the cell-free conditioned medium to a final concentration of 2 mg/L and distributed into 6-well-plates. The cell-free conditioned medium was prepared by centrifuging and filtering (through a 0.22 μm filter) the plant cells from 7 day old CMViva cell cultures (pH 5.1). Various protease inhibitors including 2-mercaptoethylamine-HCl (aminopeptidase inhibitor), AEBSF (serine and cysteine proteases inhibitor), benzamidine-HCl (serine protease inhibitor), and EDTA (a metal ion chelator and metalloproteinase inhibitor) were added to the conditioned medium to a final concentration of 10 mM to assess their ability to retard the degradation of human AAT. In another treatment, the conditioned medium was also heated (in boiling water for 30 minutes) or the medium pH was adjusted (from original pH 5.1 to 6.4˜6.6) prior to the addition of human AAT to investigate the human AAT stability. The 6-well-plates containing human AAT in various conditioned medium (4 mL/well) were incubated on an orbital shaker at 140 rpm and 25[…] under ambient light. Samples were taken daily and stored at −80° for further ELISA, western blotting and band shift analysis.
# [6] = tested on: transgenic plant cell cultures; experiment: Effect of stabilizing agents and protease inhibitors on rAAT production in transgenic plant cell cultures; format: cell-based, Nicotiana benthamiana; details: transgenic plant cell cultures; data not shown
# Description: The effect of stabilizing agents (bacitracin, PVP, BSA, Pluronic F-68, and mannitol) and protease inhibitors (2-mercaptoethylamine-HCl, AEBSF, benzamidine-HCl and EDTA) on the rAAT production in transgenic plant cell cultures was also evaluated.
# [7] = inducer added 10 days after inoculation, sampled 8 days after induction
# [8] = detached leaves, single pressure injection
# [9] = intact leaves, single pressure injection
# [10] = intact leaves, single topical application, four days after induction
molecule,measurement,setting,value
"C[C@]12CC[C@@H]3c4ccc(O)cc4CC[C@H]3[C@@H]1CC[C@@H]2O [estradiol, 17-β-estradiol]",inducer concentration giving higher extracellular rAAT productivity,[1]; flask cultures,5 µM
same,estradiol concentration at which the system first responded (detectable rAAT),[1]; [7],2.5 µM
same,"detrimental, toxic or growth-inhibiting effects on cultures",N. benthamiana cultures,"no obvious detrimental, toxic, or growth-inhibiting effects"
same,estradiol concentration giving detectable GFP transcripts,"XVE system; plants, XVE system",8 nM
same,estradiol concentration at saturation of GFP transcripts,XVE system; whole plants,around 5 μM
same,estradiol concentration giving GFP fluorescence,[2]; viral amplicon plant cell cultures,10 nM
same,estradiol concentration at saturation of GFP fluorescence,[2]; viral amplicon system in plant cell culture,0.1 to 1 µM
same,inducer concentration giving higher extracellular rAAT productivity,[3]; flask cultures,0.5 µM
same,estradiol concentration at which the system first responded (detectable rAAT),[3]; [7],0.1 µM
same,lowest estradiol concentration with detectable rAAT expression,[3]; lowest concentration tested,100 nM
"rAAT: recombinant α1-antitrypsin, a human blood protein, produced in N. benthamiana",maximum total rAAT,"N. benthamiana leaves; detached leaves, multiple topical applications",3.5±0.15 % of TSP
same,total rAAT,N. benthamiana leaves; [8],2.4±0.18 % of TSP
same,maximum total rAAT,"N. benthamiana leaves; detached leaves, single topical application",2.5±0.08 % of TSP
same,maximum total rAAT,"N. benthamiana leaves; intact leaves, multiple pressure injections, 6 days after induction",5.8±0.46 % of TSP
same,"increase of total rAAT, multiple compared to single treatment","N. benthamiana leaves; intact leaves, pressure injection",57%
same,total rAAT,N. benthamiana leaves; [9],3.7±0.31 % of TSP
same,total rAAT,N. benthamiana leaves; [10],1.4±0.17 % of TSP
same,maximum total rAAT,"N. benthamiana leaves; intact leaves, single topical application, six days after induction",1.9±0.15 % of TSP
same,"increase of total rAAT, multiple compared to single treatment","N. benthamiana leaves; intact leaves, topical application",120%
same,"more total rAAT, single pressure injection compared to single topical application",N. benthamiana leaves; intact plants,95%
same,maximum total rAAT in detached leaves above that in intact leaves,N. benthamiana leaves; single topical application,0.6 % of TSP
same,functional rAAT higher with single pressure injection than single topical application,[4]; detached leaves,80%
same,"increase of maximum functional rAAT, inducer applied topically every two days",[4]; detached leaves,1.8 fold
same,maximum percentage of functional rAAT to total rAAT,"[4]; detached leaves, injection method, two days after induction",85-87%
same,functional rAAT,"[4]; detached leaves, multiple topical applications, four days post induction",1.3±0.05 % of TSP
same,functional rAAT,[4]; [8],1.3±0.06 % of TSP
same,functional rAAT,"[4]; detached leaves, single topical application, four days post induction",0.71±0.04 % of TSP
same,maximum percentage of functional rAAT to total rAAT,"[4]; detached leaves, topical application, two days after induction",55-65%
same,"increase of maximum functional rAAT, multiple pressure injections compared to single topical application",[4]; intact leaves,up to 3 fold
same,percentage of total rAAT that is functional,"[4]; intact leaves, eighth day after induction, any of the treatments",less than 15%
same,maximum functional rAAT,"[4]; intact leaves, multiple pressure injections",2.4±0.09 % of TSP
same,maximum functional rAAT,"[4]; intact leaves, multiple topical applications",1.6±0.08 % of TSP
same,percentage of total rAAT that is functional,"[4]; intact leaves, pressure injection, two days after induction",83-90% and > 85%
same,maximum functional rAAT,[4]; [9],1.8±0.09 % of TSP
same,maximum functional rAAT,[4]; [10],0.80±0.04 % of TSP
same,functional rAAT still present as % of the maximum level,"[4]; intact leaves, six days after induction, single induction treatment",less than 40%
same,"more functional rAAT, single pressure injection compared to single topical application",[4]; intact plants,125%
same,functional rAAT in detached leaves less than in intact leaves,"[4]; multiple topical applications, four days post induction",0.3 % of TSP
same,functional rAAT in detached leaves less than in intact leaves,"[4]; single topical application, four days post induction",0.09 % of TSP
CC[C@H](C)[C@H](N)C1=N[C@H](C(=O)N[C@@H](CC(C)C)C(=O)N[C@H](CCC(=O)O)C(=O)N[C@H](C(=O)N[C@H]2CCCCNC(=O)[C@H](CC(N)=O)NC(=O)[C@@H](CC(=O)O)NC(=O)[C@H](Cc3cnc[nH]3)NC(=O)[C@@H](Cc3ccccc3)NC(=O)[C@H]([C@@H](C)CC)NC(=O)[C@@H](CCCN)NC2=O)[C@@H](C)CC)CS1 [bacitracin] ({Ileψ(thiazoline)Cys}-L[dE]IK[dOrn]I[dF]H[dD]N; lactam 4-C),effect of medium additive on stabilizing functional human AAT,[5],did not show significant effect
same,effect on total and functional rAAT production,[6],no significant improvement
Cl.N=C(N)c1ccccc1 [benzamidine-HCl],effect on total and functional rAAT production,[6],no significant improvement
